The text below walks through data of patent publication US9988370B2, “Benzisoxazole derivative salt” (RaQualia Pharma Inc., priority 2014, dated 2018).

Series [1] is described as follows: Hygroscopicity study (storage at 90% RH, weighing and PXRD after five days). Particulars: for PXRD (compared to intact bulk) / PXRD - overnight at ambient condition: after five days at 90% RH; for PXRD - overnight at ambient condition: then equilibrated at ambient temperature overnight; for Water uptake after 5 days: humidity chamber at 90% RH (BaCl2-2H2O), five days. It counts as physicochemical. The protocol:
The salt samples are weighed into aluminum crucibles, placed onto a sample holder, and stored in the humidity chamber at 90% RH (BaCl2-2H2O). The samples are visually inspected with a hand magnifying lens and weighed on an analytical balance after five days. The samples are analyzed by PXRD after five days, then allowed to equilibrate at ambient temperatures overnight and re-analyzed by PXRD to evaluate stability of suspected hydrates under ambient conditions.

Series [2] is described as follows: Solid-state stability study under 40° C./75% RH (HPLC remaining % and purity). It counts as physicochemical. The settings on record: 40° C./75% RH for 6 month; for Purity (Area %) Main peak: counterion area excluded. As for the experimental part: HPLC data are obtained by Waters Alliance 2695 HPLC system with 2996 PDA detector using the following conditions; • Column: Inertsil ODS-3 (3 microm, 4.6×150 mm), • Eluent: acetonitrile/10 mM ammonium acetate=32/68, • Detection: UV at 215 nm, • Flow rate: 1 mL/min, and • Column temperature: 40° C.
Solid-state stability study is performed using Nagano Science Constant temperature/humidity control chamber LH-20-11M or LH-21-11M. The sample is placed in the chamber and exposed under 40° C./75% RH. The crystalline form and thermal behavior of the resultant sample after the exposure are evaluated by PXRD and TG/DTA, respectively. The remaining % and the purity are determined by HPLC measurement.

For “4-{[4-({[4-(2,2,2-trifluoroethoxy)-1,2-benzisoxazol-3-yl]oxy}methyl)piperidin-1-yl]methyl}tetrahydro-2H-pyran-4-carboxylic acid hemi-ethanedisulfonate salt [EDSA-salt]”, in series [1], the “PXRD (compared to intact bulk)” value is on record as “same” and the “PXRD - overnight at ambient condition” value is recorded as “no change”. In addition, in series [2], the “Assay Remaining %” value was determined as 99% and the “Purity (Area %) Main peak” value came out at 100.0 Area %.

Consider `O=C(O)C1(CN2CCC(COc3noc4cccc(OCC(F)(F)F)c34)CC2)CCOCC1` [Free form, 4-{[4-({[4-(2,2,2-trifluoroethoxy)-1,2-benzisoxazol-3-yl]oxy}methyl)piperidin-1-yl]methyl}tetrahydro-2H-pyran-4-carboxylic acid], for which, in series [1], the “PXRD (compared to intact bulk)” value is “different from the intact bulk”, the “PXRD - overnight at ambient condition” value was “no change” and the “Water uptake after 5 days” value is 16.7 wt %. For the same molecule, in series [2], the “Assay Remaining %” value was 87% and the “Purity (Area %) Main peak” value came out at 95.6 Area %.

Regarding `Br.O=C(O)C1(CN2CCC(COc3noc4cccc(OCC(F)(F)F)c34)CC2)CCOCC1` [HBr-salt, 4-{[4-({[4-(2,2,2-trifluoroethoxy)-1,2-benzisoxazol-3-yl]oxy}methyl)piperidin-1-yl]methyl}tetrahydro-2H-pyran-4-carboxylic acid hydrobromide salt], in series [1], the “PXRD (compared to intact bulk)” value is reported as “same” and the “PXRD - overnight at ambient condition” value was “no change”. In series [2], the “Assay Remaining %” value was determined as 99% and the “Purity (Area %) Main peak” value turned out to be 99.9 Area %.

For the molecule `Cl.O=C(O)C1(CN2CCC(COc3noc4cccc(OCC(F)(F)F)c34)CC2)CCOCC1` [HCl-salt, 4-{[4-({[4-(2,2,2-trifluoroethoxy)-1,2-benzisoxazol-3-yl]oxy}methyl)piperidin-1-yl]methyl}tetrahydro-2H-pyran-4-carboxylic acid hydrochloride salt], in series [1], the “PXRD (compared to intact bulk)” value was “same” and the “PXRD - overnight at ambient condition” value is listed as “no change”. Further, in series [2], the “Assay Remaining %” value stood at 97% and the “Purity (Area %) Main peak” value is given as 98.8 Area %.

`Cc1ccc(S(=O)(=O)O)cc1.O=C(O)C1(CN2CCC(COc3noc4cccc(OCC(F)(F)F)c34)CC2)CCOCC1` [pTSA-salt, 4-{[4-({[4-(2,2,2-trifluoroethoxy)-1,2-benzisoxazol-3-yl]oxy}methyl)piperidin-1-yl]methyl}tetrahydro-2H-pyran-4-carboxylic acid p-toluenesulfonate salt]: in series [1], the “PXRD (compared to intact bulk)” value is reported as “same” and the “PXRD - overnight at ambient condition” value is “no change”. Moreover, in series [2], the “Assay Remaining %” value was found to be 98% and the “Purity (Area %) Main peak” value turned out to be 99.7 Area %.

As for `O=C([O-])C1(CN2CCC(COc3noc4cccc(OCC(F)(F)F)c34)CC2)CCOCC1.[Na+]` [sodium salt, 4-{[4-({[4-(2,2,2-trifluoroethoxy)-1,2-benzisoxazol-3-yl]oxy}methyl)piperidin-1-yl]methyl}tetrahydro-2H-pyran-4-carboxylic acid sodium salt], in series [1], the “Water uptake after 5 days” value is “more than 40 wt %”.
